According to patent US4845215A, “Purine derivative” (Nippon Kayaku Kabushiki Kaisha, priority 1987, dated 1989):

Tests used:
[1] = Solubilities into solvents; format: physicochemical
Description: (8) Solubilities into solvents

[2] = system: T Lymphocyte (spleen cell of BALB/C mouse); test: Inhibition of Blastogenesis Reaction of T Lymphocyte by Con A (3H-thymidine take-up); format: cell-based; conditions: Con A 5 micrograms/liter, 37° C., 72 hours
Experimental: Inhibition of Blastogenesis Reaction of T Lymphocyte by Con A.
Spleen cell of BALB/C mouse was dividingly poured into a microplate so that the number of cells came to 2×10^5 /0.2 ml/well. To each of all the wells other than control group was added the compound of the present invention having varied concentration. Further, 5 […] of Con A was added to all the wells. Then, the cell suspensions were cultured at 37° C. for 72 hours in 5% carbon dioxide gas incubator. The blastogenesis reaction of lymphocyte was examined by adding 1μCi/well of ^3 H-thymidine 6 hours before the completion of the culture and measuring its take-up into cultured cells by means of liquid scintillation counter. If the take-up count at the time when only Con A was added was expressed by Adpm and the take-up count at the time when Con A and drug were added was expressed by Bdpm, (1 - Bdpm/Adpm)×100 could be regarded as the inhibitory rate of each drug on blastogenesis.

MT-4 cell = test: Cytopathic effect on MT-4 cell without virus (microscopy); format: cell-based; conditions: summary in words
Experimental: (§1) About 100,000 cells/ml of MT-4 cell was introduced into a tray having 24 holes. Further, 100 microliters of a solution containing a predetermined quantity of the compound of the present invention was added, and then it was cultured in a 5% (v/v) carbon dioxide gas incubator at 37° C. for 5 hours. Subsequently, 10^3 to 10^4 infection units of HIV was added and cultured for 4 days. Then, a part of the culture fluid was applied to a slide glass and immobilized with acetone, and development of virus antigen was examined by the fluorescent antibody technique. Cytopathic effect of the compound of the invention on MT-4 cell was examined microscopically without adding virus.

[3] = Acute toxicity (LD50) on mouse; format: in vivo; conditions: in vivo, iv
Experimental: (§2) (3) The acute toxicity (LD50) of the compound of formula (1) on mouse was 200 mg/kg (iv) or above which is weaker than the toxicities of various known nucleic acid type antibiotics.

mouse = test: Acute toxicity (LD50) on mouse; format: in vivo; conditions: iv
Experimental: as §2

[4] = system: Herpes Simplex virus type-II; test: Antiviral activity by CPE (cytopathic effect) of Herpes Simplex virus type-II on Vevo cell; format: cell-based; conditions: read-out: Inhibition rate (%)
Experimental: (a) Its antiviral activity was measured by observing CPE (cytopathic effect) of Herpes Simplex virus type-II on the Vevo cell originated from the kidney of Cercopithecus aetiops.

[5] = system: Human Immunodeficiency Virus (HIV); test: Anti-HIV activity: development of virus antigen in MT-4 cell (fluorescent antibody technique); format: cell-based; conditions: for Development of virus antigen (%): 4 days, DMSO only 80 to 90%
Experimental: (b) Anti-"Human Immunodeficiency Virus (HIV)" activity.
as §1, with “technique.” for “technique. Cytopathic effect of the compound of the invention on MT-4 cell was examined microscopically without adding virus.”
A serum of an AIDS patient was used as the primary antibody of the fluorescent antibody technique, and FITC-labelled anti-human IgG was used as its secondary antibody.
The compound of the present invention was used in the form of a solution
in DMSO. In DMSO itself only, development of virus antigen was 80 to 90%.

O=c1[nH]cnc2c1ncn2[C@@H]1O[C@H](CO)[C@H]1CO [compound of formula (1), 9-[(2'R,3'R,4'S)-3',4'-bis-(hydroxymethyl)-2'-oxetanyl]-hypoxanthine]
Solubility ([1]; acetone): insoluble or only slightly soluble | Solubility ([1]; benzene): insoluble or only slightly soluble | Solubility ([1]; dimethyl sulfoxide): soluble | Solubility ([1]; ether): insoluble or only slightly soluble | Solubility ([1]; ethyl acetate): insoluble or only slightly soluble | Solubility ([1]; methanol): soluble | Solubility ([1]; propanol): insoluble or only slightly soluble | Solubility ([1]; water): soluble | IC50 [2]: 14.5 µg/mL | cytopathic effect (summary) (MT-4 cell): small | LD50 [3]: ≥ 200 mg/kg | acute toxicity compared with various known nucleic acid type antibiotics (mouse): weaker | inhibition at 31.3 µg/disc ([4]; 31.3 mcg/well): 8% | inhibition at 62.5 µg/disc ([4]; 62.5 mcg/well): 33% | inhibition at 125 µg/disc ([4]; 125 mcg/well): 75% | Development of virus antigen (%) ([5]; 1 μg/ml): 40% | Development of virus antigen (%) ([5]; 10 μg/ml): 10% | Development of virus antigen (%) ([5]; 100 μg/ml): 2% | growth-inhibitory action of HIV ([5]; summary in words): marked
